Results taken from PubChem BioAssay (NCI).
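A five-concentration, 48-hour dose response in 96-well plates underlies each endpoint, interpolated linearly between surrounding concentrations. TGI marks complete inhibition of growth.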

Tests used:
Assay in all cases: NCI tumour cell line growth inhibition, 48 h
IGROV1 ovarian = test system: IGROV1 ovarian
OVCAR-3 ovarian = test system: OVCAR-3 ovarian
OVCAR-5 ovarian = test system: OVCAR-5 ovarian
EKVX NSCLC = test system: EKVX NSCLC
M14 melanoma = test system: M14 melanoma
RPMI-8226 leukemia = test system: RPMI-8226 leukemia
DMS 273 small cell lung = test system: DMS 273 small cell lung
SN12C renal = test system: SN12C renal
KM20L2 colon = test system: KM20L2 colon
HL-60(TB) leukemia = test system: HL-60(TB) leukemia
HCT-116 colon = test system: HCT-116 colon
SF-268 CNS = test system: SF-268 CNS
DMS 114 small cell lung = test system: DMS 114 small cell lung
SK-MEL-28 melanoma = test system: SK-MEL-28 melanoma
CAKI-1 renal = test system: CAKI-1 renal
SF-539 CNS = test system: SF-539 CNS
SF-295 CNS = test system: SF-295 CNS
SNB-75 CNS = test system: SNB-75 CNS
MALME-3M melanoma = test system: MALME-3M melanoma
HOP-62 NSCLC = test system: HOP-62 NSCLC
COLO 205 colon = test system: COLO 205 colon
NCI-H226 lung = test system: NCI-H226 lung
UO-31 renal = test system: UO-31 renal
SK-MEL-2 melanoma = test system: SK-MEL-2 melanoma
RXF 393 renal = test system: RXF 393 renal
MOLT-4 leukemia = test system: MOLT-4 leukemia
DLD-1 colon = test system: DLD-1 colon
ACHN renal = test system: ACHN renal
SK-OV-3 ovarian = test system: SK-OV-3 ovarian
K-562 leukemia = test system: K-562 leukemia
CCRF-CEM leukemia = test system: CCRF-CEM leukemia
SW-620 colon = test system: SW-620 colon
NCI-H522 lung = test system: NCI-H522 lung
LXFL 529 NSCLC = test system: LXFL 529 NSCLC
TK-10 renal = test system: TK-10 renal
UACC-62 melanoma = test system: UACC-62 melanoma
HOP-18 NSCLC = test system: HOP-18 NSCLC
OVCAR-4 ovarian = test system: OVCAR-4 ovarian
XF 498 CNS = test system: XF 498 CNS
HCC-2998 colon = test system: HCC-2998 colon
U251 CNS = test system: U251 CNS
SK-MEL-5 melanoma = test system: SK-MEL-5 melanoma
M19-MEL melanoma = test system: M19-MEL melanoma
SNB-19 CNS = test system: SNB-19 CNS
NCI-H460 lung = test system: NCI-H460 lung
NCI-H23 lung = test system: NCI-H23 lung
786-0 renal = test system: 786-0 renal
A498 renal = test system: A498 renal
LOX IMVI melanoma = test system: LOX IMVI melanoma
KM12 colon = test system: KM12 colon
A549 NSCLC = test system: A549 NSCLC
UACC-257 melanoma = test system: UACC-257 melanoma
SNB-78 CNS = test system: SNB-78 CNS
OVCAR-8 ovarian = test system: OVCAR-8 ovarian
SR leukemia = test system: SR leukemia
HT29 colon = test system: HT29 colon
HOP-92 NSCLC = test system: HOP-92 NSCLC
HCT-15 colon = test system: HCT-15 colon

SMILES: O=c1/c(=C/c2ccc3c(c2)OCO3)sc2nnc(-c3ccco3)n12
- TGI (IGROV1 ovarian): > 100 µM
- TGI (OVCAR-3 ovarian): > 100 µM
- TGI (OVCAR-5 ovarian): > 100 µM
- TGI (EKVX NSCLC): > 100 µM
- TGI (M14 melanoma): > 100 µM
- TGI (RPMI-8226 leukemia): > 100 µM
- TGI (DMS 273 small cell lung): > 100 µM
- TGI (SN12C renal): > 100 µM
- TGI (KM20L2 colon): > 100 µM
- TGI (HL-60(TB) leukemia): > 100 µM
- TGI (HCT-116 colon): > 100 µM
- TGI (SF-268 CNS): > 100 µM
- TGI (DMS 114 small cell lung): > 100 µM
- TGI (SK-MEL-28 melanoma): > 100 µM
- TGI (CAKI-1 renal): > 100 µM
- TGI (SF-539 CNS): > 100 µM
- TGI (SF-295 CNS): > 100 µM
- TGI (SNB-75 CNS): 71.2 µM
- TGI (MALME-3M melanoma): > 100 µM
- TGI (HOP-62 NSCLC): > 100 µM
- TGI (COLO 205 colon): > 100 µM
- TGI (NCI-H226 lung): > 100 µM
- TGI (UO-31 renal): > 100 µM
- TGI (SK-MEL-2 melanoma): > 100 µM
- TGI (RXF 393 renal): > 100 µM
- TGI (MOLT-4 leukemia): > 100 µM
- TGI (DLD-1 colon): > 100 µM
- TGI (ACHN renal): > 100 µM
- TGI (SK-OV-3 ovarian): > 100 µM
- TGI (K-562 leukemia): > 100 µM
- TGI (CCRF-CEM leukemia): > 100 µM
- TGI (SW-620 colon): > 100 µM
- TGI (NCI-H522 lung): > 100 µM
- TGI (LXFL 529 NSCLC): > 100 µM
- TGI (TK-10 renal): > 100 µM
- TGI (UACC-62 melanoma): > 100 µM
- TGI (HOP-18 NSCLC): > 100 µM
- TGI (OVCAR-4 ovarian): > 100 µM
- TGI (XF 498 CNS): > 100 µM
- TGI (HCC-2998 colon): > 100 µM
- TGI (U251 CNS): > 100 µM
- TGI (SK-MEL-5 melanoma): > 100 µM
- TGI (M19-MEL melanoma): > 100 µM
- TGI (SNB-19 CNS): > 100 µM
- TGI (NCI-H460 lung): > 100 µM
- TGI (NCI-H23 lung): > 100 µM
- TGI (786-0 renal): > 100 µM
- TGI (A498 renal): > 100 µM
- TGI (LOX IMVI melanoma): > 100 µM
- TGI (KM12 colon): > 100 µM
- TGI (A549 NSCLC): > 100 µM
- TGI (UACC-257 melanoma): > 100 µM
- TGI (SNB-78 CNS): > 100 µM
- TGI (OVCAR-8 ovarian): > 100 µM

SMILES: CN(C)CCC1(C2=CCCC2)CC/C(=C\c2ccccc2)C1=O (stereo not given)
- TGI (IGROV1 ovarian): 29.8 µM
- TGI (OVCAR-3 ovarian): 28.5 µM
- TGI (OVCAR-5 ovarian): 35.7 µM
- TGI (EKVX NSCLC): 25.7 µM
- TGI (M14 melanoma): 30.2 µM
- TGI (RPMI-8226 leukemia): 35.1 µM
- TGI (DMS 273 small cell lung): 29 µM
- TGI (SN12C renal): 31.1 µM
- TGI (KM20L2 colon): 26 µM
- TGI (SR leukemia): > 100 µM
- TGI (HL-60(TB) leukemia): 29.9 µM
- TGI (HCT-116 colon): 35.4 µM
- TGI (SF-268 CNS): 42.2 µM
- TGI (DMS 114 small cell lung): 33.2 µM
- TGI (SK-MEL-28 melanoma): 38 µM
- TGI (CAKI-1 renal): 26.3 µM
- TGI (SF-539 CNS): 30.5 µM
- TGI (SF-295 CNS): 33.6 µM
- TGI (SNB-75 CNS): 35.9 µM
- TGI (MALME-3M melanoma): 31.7 µM
- TGI (HOP-62 NSCLC): 30 µM
- TGI (COLO 205 colon): 28.3 µM
- TGI (NCI-H226 lung): 31.1 µM
- TGI (HT29 colon): 34.4 µM
- TGI (UO-31 renal): 30.7 µM
- TGI (SK-MEL-2 melanoma): 31 µM
- TGI (RXF 393 renal): 26.6 µM
- TGI (MOLT-4 leukemia): 39 µM
- TGI (DLD-1 colon): 37.5 µM
- TGI (ACHN renal): 28.6 µM
- TGI (K-562 leukemia): 46.5 µM
- TGI (CCRF-CEM leukemia): 50.3 µM
- TGI (SW-620 colon): 32.2 µM
- TGI (NCI-H522 lung): 27.4 µM
- TGI (LXFL 529 NSCLC): 29.6 µM
- TGI (HOP-92 NSCLC): 45.6 µM
- TGI (TK-10 renal): 29 µM
- TGI (HCT-15 colon): 26.6 µM
- TGI (UACC-62 melanoma): 26.6 µM
- TGI (HOP-18 NSCLC): 29.2 µM
- TGI (OVCAR-4 ovarian): 31 µM
- TGI (HCC-2998 colon): 29.2 µM
- TGI (U251 CNS): 30.3 µM
- TGI (SK-MEL-5 melanoma): 27.8 µM
- TGI (M19-MEL melanoma): 28.5 µM
- TGI (SNB-19 CNS): 28.3 µM
- TGI (NCI-H460 lung): 31.3 µM
- TGI (NCI-H23 lung): 46.9 µM
- TGI (786-0 renal): 27.8 µM
- TGI (A498 renal): 29.1 µM
- TGI (LOX IMVI melanoma): 31.3 µM
- TGI (KM12 colon): 28.8 µM
- TGI (A549 NSCLC): 41.9 µM
- TGI (UACC-257 melanoma): 28.5 µM
- TGI (SNB-78 CNS): 46.2 µM
- TGI (OVCAR-8 ovarian): 29.6 µM
